# Where a name gives a salt, the structure may show the parent alone.
# Legend:
# [1] = system: ID188 patient-derived PDAC 2D line (pre-FOLFIRINOX); assay: normalised area under dose-response curve (viability relative to DMSO, 7 doses up to 10 µM) (fraction (AUC)); higher = less sensitive (more viability retained); conditions: 72 h; top dose: 10 µM
# Procedure: (§1)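 Patient-derived 2D PDAC cells (ID188 pre-FOLFIRINOX, passage 5+27; ID211 post-FOLFIRINOX, passage 9+11), 1,500-3,000 cells/well in 96-well plates, were treated with a 415-compound Selleck library in seven concentrations (3-fold dilution series, top 10 µM) for 72 h. Viability was read by CellTiter-Glo ATP luminescence, normalised to the DMSO control, and the area under the dose-response curve was computed with the GRmetrics R package; a lower AUC means higher sensitivity.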
# [2] = system: ID211 patient-derived PDAC 2D line (post-FOLFIRINOX); assay: as above; conditions: 72 h; top dose: 10 µM
# Procedure: as §1
Compound,normalised area under dose-response curve [1],normalised area under dose-response curve [2]
CN(CCNc1ccnc2cc(Cl)ccc12)CCNc1ccnc2cc(Cl)ccc12 [Lys05],0.921,0.796
CN1CCC(CNc2ccc3ncc(-c4cccc(OC(F)(F)F)c4)n3n2)CC1 [SGI-1776 free base],0.949,0.788
CNC(=O)c1nn(C)c2c1C(C)(C)Cc1cnc(Nc3ccc(N4CCN(C)CC4)cc3)nc1-2,0.776,0.783
COc1ccc(S(=O)(=O)Nc2cccnc2Nc2ccc(O)cc2)cc1 [ABT-751 (E7010)],0.794,0.644
C[C@@H]1CCN(C(=O)CC#N)C[C@@H]1N(C)c1ncnc2[nH]ccc12,0.759,0.881
COc1cc([C@@H]2c3cc4c(cc3[C@@H](O[C@@H]3O[C@@H]5CO[C@@H](C)O[C@H]5[C@H](O)[C@H]3O)[C@H]3COC(=O)[C@H]23)OCO4)cc(OC)c1O [Etoposide],0.946,0.853
Cc1ccc(NC(=O)c2cccc(C(C)(C)C#N)c2)cc1Nc1ccc2ncn(C)c(=O)c2c1 [AZ 628],0.898,0.634
O=C1C(=Cc2cccnc2)C(=O)c2ccccc21 [PRT4165],0.875,0.746
Clc1ccc(Nc2nnc(Cc3ccncc3)c3ccccc23)cc1 [Vatalanib (PTK787) 2HCl],0.926,0.894
COc1cc(Nc2ncc3c(n2)-c2ccc(Cl)cc2C(c2c(F)cccc2OC)=NC3)ccc1C(=O)O [Alisertib (MLN8237)],0.799,0.88
CC(=O)Nc1cccc(-n2c(=O)n(C3CC3)c(=O)c3c(Nc4ccc(I)cc4F)n(C)c(=O)c(C)c32)c1,0.553,0.197
Cc1cc([C@@H](C)Nc2ccccc2C(=O)O)c2nc(N3CCOCC3)cc(=O)n2c1 [AZD6482],0.862,0.835
Nc1nc(NC2CC2)cc(-c2cccc(Cl)c2Cl)n1 [TH588],0.914,0.918
Cc1cc(C)nc(NC(=S)N2CCN(Cc3ccc(C(F)(F)F)cc3)CC2)c1 [NCT-503],0.954,0.909
Nc1ccccc1NC(=O)c1ccc(CNC(=O)OCc2cccnc2)cc1 [Entinostat (MS-275)],0.835,0.73
O=C(NNc1ccccc1)c1ccncc1,0.961,0.899
Cc1cc(F)c(C(=O)Nc2cccc(-c3nncn3C(C)C)n2)cc1-n1cnc(C2CC2)c1 [Selonsertib (GS-4997)],0.951,0.911
Cc1cccc(-c2[nH]c(CNc3ccccc3F)nc2-c2ccc3ncnn3c2)n1 [Vactosertib (TEW-7197)],0.931,0.871

Compound,normalised area under dose-response curve [1],normalised area under dose-response curve [2]
CN(C)Cc1c(C(=O)NCCOc2ccc(C(=O)NO)cc2)oc2ccccc12,0.733,0.748
CN1c2ccccc2C(=O)Nc2cnc(Nc3ccc(N4CCC(O)CC4)cc3)nc21 [XMD16-5],0.906,0.783
"CC1(C)CCC(CN2CCN(c3ccc(C(=O)NS(=O)(=O)c4ccc(NCC5CCOCC5)c([N+](=O)[O-])c4)c(Oc4cnc5[nH]ccc5c4)c3)CC2)=C(c2ccc(Cl)cc2)C1 [Venetoclax (ABT-199, GDC-0199)]",0.928,0.887
COc1cc2ncnc(Oc3cccc(NC(=O)Nc4cc(C(C)(C)C(F)(F)F)on4)c3)c2cc1OC,0.948,0.832
Cc1ccc(C(=O)N(CCCN)[C@@H](c2oc3cc(Cl)ccc3c(=O)c2Cc2ccccc2)C(C)C)cc1,0.51,0.708
O=C(CBr)N1CC([N+](=O)[O-])([N+](=O)[O-])C1 [RRx-001],0.915,0.843
N[C@@H]1CCCN(c2c(/C=C3\SC(=O)NC3=O)cccc2-c2ccccc2)C1 [AZD1208],0.958,0.841
CS(=O)(=O)N1CCN(Cc2cc3nc(-c4cccc5[nH]ncc45)nc(N4CCOCC4)c3s2)CC1 [Pictilisib (GDC-0941)],0.683,0.596
COc1cc(OC)c(/C=C/S(=O)(=O)Cc2ccc(OC)c(NCC(=O)O)c2)c(OC)c1,0.746,0.557
CN1CCN(c2ccc(Nc3ncc4cc(C#N)c(=O)n(C5CCCC5)c4n3)cc2)CC1,0.98,0.852
Cc1[nH]nc(C(F)(F)F)c1Cc1sc2c(c1C(=O)N1C[C@](C)(O)CO1)c(=O)n(C)c(=O)n2C(C)C [AZD3965],0.937,0.89
CC(C)(C)c1ccc(S(=O)(=O)NCc2ccc(C(=O)Nc3cccnc3)cc2)cc1 [STF-31],0.864,0.865
CNC(=O)c1ccccc1Sc1ccc2c(/C=C/c3ccccn3)n[nH]c2c1 [Axitinib],0.898,0.857
Cc1cc([N+](=O)[O-])ccc1NS(=O)(=O)c1cc(Cl)ccc1Cl [FH535],0.91,0.922
CNS(=O)(=O)Nc1nccc(Cc2c(C)c3ccc(Oc4ncccn4)cc3oc2=O)c1F,0.679,0.409
CC1(N)CCN(c2cnc(-c3cccc(Cl)c3Cl)c(N)n2)CC1 [SHP099 dihydrochloride],0.963,0.91
O=C(O)C(Cc1ccccc1[N+](=O)[O-])=NNc1nc(-c2ccc(Cl)c(Cl)c2)cs1 (mixture of isomers) [4EGI-1],0.549,0.889
Cc1cc(/N=N/c2ccc(S(=O)(=O)Nc3ccccn3)cc2)c(N)cc1O [MS436],0.977,0.957

# From the supplement of paper PMC8988213
